Measurements published in patent US7435587B2, “Apparatus for growing cells under variable hydrostatic pressures” (Memorial Sloan-Kettering Cancer Center, priority 2002, dated 2008).
Entries after “also recorded” stand apart in the source; their conditions may differ.

Columns and labels:
Type in all cases: cell-based, human
HOS cells [1] = test: Chemosensitivity testing in a pressurized cassette-HPA system (in situ cell counts); settings: for differences in growth between the pressurized and non-pressurized systems: 0 vs 20 mmHg, 72 h under pressure with drug, at 0.16 and 1 μ/ml; for difference in viability (cell counts under pressure) between 0 and 20 mmHg: testing under pressure, clinically relevant range of 0.04 to 4 μ/ml
Experimental: To investigate chemosensitivity in a pressurized system, 1.5×10^4 HOS cells were seeded in 16 cassettes. These were incubated for 24 hours and baseline counts were made at the end of 24 hours. Serial dilutions of doxorubicin were added at a dose of 0 μg/ml, 0.16 μg/ml, 1 μg/ml and 8 μg/ml. […] Two sets were provided for each drug at 0 and 20 mmHg. Pressurization proceeded for 72 hours as described above. At the end of this time point, in situ cell growth over the identical 5 high power fields recorded after the first 24 hours were made. The observer was blinded to the identity of the sample being read. Cell growth was expressed as a ratio between the 72 hour and baseline 24 hour counts. This was then normalized to the readings for cells that were not exposed to chemotherapy (i.e. 0 μg/ml). This was done to account for cell growth changes that could result from the pressure effect itself. Student's T-test was used to assess for significance between the results of chemosensitivity at 0 and 20 mmHg. […] Each data point represents the mean of five readings with error bars representing the standard error of the mean.

HOS cells [2] = test: Conventional 96-well chemosensitivity testing of HOS cells grown under pressure, de-pressurized, trypsinized and reattached 24 h (Alamar blue); settings: tested at atmospheric pressure, p<0.05; for difference in the ED50 between cells grown at atmospheric pressure and those grown under 20 mmHg of pressure: HOS cells grown 72 h at 0 vs 20 mmHg, de-pressurized, difference is small
Experimental: HOS cells were pressurized at 0 and 20 mmHg for 72 hours. At the end of this time point the growth membrane was removed and discs were created with a sterile punch. These discs bearing 2000 cells/disc were placed within each of the wells in a Costar 96-well plate (Bio-Rad, Hercules, Calif.). Serial dilutions of doxorubicin were immediately applied to the wells at a dose of 100 μg/ml to 0.00128 μg/ml. These were allowed an exposure time of 24 hours and then washed with PBS and 200 μl growth media replaced for a further 24 hours 25 μl of Alamar blue dye® (BioSource International, Camarillo, Calif.) was added for a further 8 hours and metabolic activity read with a Cytofluor® plate reader (Applied Biosystems, Foster City, Calif.). Metabolic activity was expressed as per manufacturer recommendations (BioSource International, Camarillo, Calif.). The experiment was repeated using cells grown at 72 hours under pressure, de-pressurized to atmospheric pressure and then trypsinized and seeded at 2000 cells per well and allowed 24 hours to gain attachment. They were then treated with doxorubicin. Assessment was completed as above. […] Student's t-test was used to assess for significance between the results of chemosensitivity at 0 and 20 mmHg. […] Each data point represents the mean of six readings with error bars representing the standard deviation.

HOS cells [3] = test: Chemosensitivity testing of membrane discs bearing pressurized HOS cells immediately exposed to drug in 96-well plate (Alamar blue); settings: HOS cells grown under pressure 72 h, cut from membranes, 24 h drug exposure at atmospheric pressure, no 24 h de-pressurization
Experimental: HOS cells were pressurized at 0 and 20 mmHg for 72 hours. At the end of this time point the growth membrane was removed and discs were created with a sterile punch. These discs bearing 2000 cells/disc were placed within each of the wells in a Costar 96-well plate (Bio-Rad, Hercules, Calif.). Serial dilutions of doxorubicin were immediately applied to the wells at a dose of 100 μg/ml to 0.00128 μg/ml. These were allowed an exposure time of 24 hours and then washed with PBS and 200 μl growth media replaced for a further 24 hours 25 μl of Alamar blue dye® (BioSource International, Camarillo, Calif.) was added for a further 8 hours and metabolic activity read with a Cytofluor® plate reader (Applied Biosystems, Foster City, Calif.). Metabolic activity was expressed as per manufacturer recommendations (BioSource International, Camarillo, Calif.).

Row | SMILES | differences in growth between the pressurized and non-pressurized systems (HOS cells [1]) | difference in viability (cell counts under pressure) between 0 and 20 mmHg (HOS cells [1]) | difference in the ED50 between cells grown at atmospheric pressure and those grown under 20 mmHg of pressure (HOS cells [2]) | difference in sensitivity between cells grown at 0 and 20 mmHg, membranes immediately exposed to drug (HOS cells [3]) | difference in cytotoxicity between cells grown at 0 and 20 mmHg (HOS cells [2]; depressurized HOS cells, drug concentration range 0.04 to 4 μg/ml)
1 | N.N.[Cl][Pt][Cl] [cisplatin] | marked differences in growth | dramatic difference in viability | statistically significant difference |  | 
2 | COc1cccc2c1C(=O)c1c(O)c3c(c(O)c1C2=O)C[C@@](O)(C(=O)CO)C[C@@H]3O[C@H]1C[C@H](N)[C@H](O)[C@H](C)O1 [doxorubicin] | marked differences in growth | dramatic difference in viability | statistically significant difference | this difference became more pronounced; also recorded: dramatic differences to sensitivity | statistically significant difference in cytotoxicity
